Molecular target: T1, c-kit mutant D816V (Homo sapiens, UniProt P10721, D816V/DEL694-753)
T1 construct: residues 551-934, kinase insertion domain residues 694-753 deleted; 6x-histidine (N); made in house; host or cells: E. coli Arctic Express (DE3) RIL (Stratagene)
Test: c-Kit mutant D816V biochemical assay, AlphaScreen
Settings: c-kit D816V biochemical inhibitory activity; read-out: Biochemical activity (IC50 μM) Kit D816V
Outline: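 Purified His-tagged c-Kit D816V (E. coli-expressed) assayed in 25 mM HEPES pH 7.2 with Mg/Mn, 5% DMSO and 10 μM ATP, 30 min at room temperature, 8-point 1:3 dilutions. Phosphorylation detected by AlphaScreen with streptavidin donor and PY20 acceptor beads; IC50 from signal versus concentration.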

T1 sequence (P10721 with tags, fused parts or gaps DEL694-753/D816V): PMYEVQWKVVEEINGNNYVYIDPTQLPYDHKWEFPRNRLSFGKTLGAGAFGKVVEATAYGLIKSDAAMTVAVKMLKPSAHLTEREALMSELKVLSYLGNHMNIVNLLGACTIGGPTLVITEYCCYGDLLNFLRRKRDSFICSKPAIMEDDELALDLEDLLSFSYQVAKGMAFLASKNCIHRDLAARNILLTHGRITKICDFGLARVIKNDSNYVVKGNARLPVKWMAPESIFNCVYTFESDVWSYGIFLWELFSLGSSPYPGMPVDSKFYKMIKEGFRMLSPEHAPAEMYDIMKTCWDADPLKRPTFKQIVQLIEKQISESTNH

| Compound | IC50 [µM] |
| --- | --- |
| O=C(NCc1cccc(OC(F)F)c1)N1CCN(c2ncnc3[nH]c(-c4ccc(F)cc4)cc23)CC1 [P-0073, N-[[3-(difluoromethoxy)phenyl]methyl]-4-[6-(4-fluorophenyl)-7H-pyrrolo[2,3-d]pyrimidin-4-yl]piperazine-1-carboxamide] | 1 to 10 |
| C[C@@H](NC(=O)N1CCN(c2ncnc3[nH]c(-c4ccc(F)cc4)cc23)CC1)c1ccc(F)cc1 [P-0146, N-[(1R)-1-(4-fluorophenyl)ethyl]-4-[6-(4-fluorophenyl)-7H-pyrrolo[2,3-d]pyrimidin-4-yl]piperazine-1-carboxamide] | 10 to 200 |
| O=S(=O)(NC1CCN(c2ncnc3[nH]c(-c4ccc(Cl)cc4)cc23)CC1)c1cc2ccccc2s1 [P-0467, N-[1-[6-(4-chlorophenyl)-7H-pyrrolo[2,3-d]pyrimidin-4-yl]-4-piperidyl]benzothiophene-2-sulfonamide] | 1 to 10 |
| O=C(NCCc1ccc(F)cc1)N1CCN(c2ncnc3[nH]ccc23)CC1 [P-0164, N-[2-(4-fluorophenyl)ethyl]-4-(7H-pyrrolo[2,3-d]pyrimidin-4-yl)piperazine-1-carboxamide] | 10 to 200 |
| C[C@@H]1CN(c2ncnc3[nH]c(-c4ccc(Cl)cc4)cc23)CCN1C(=O)N[C@H](C)c1ccc(F)cc1 [P-0022, (2R)-4-[6-(4-chlorophenyl)-7H-pyrrolo[2,3-d]pyrimidin-4-yl]-N-[(1R)-1-(4-fluorophenyl)ethyl]-2-methyl-piperazine-1-carboxamide] | 0.0001 to 1 |
| O=C(NCc1cccc(OC(F)(F)F)c1)N1CCN(c2ncnc3[nH]c(-c4ccc(F)cc4)cc23)CC1 [P-0076, 4-[6-(4-fluorophenyl)-7H-pyrrolo[2,3-d]pyrimidin-4-yl]-N-[[3-(trifluoromethoxy)phenyl]methyl]piperazine-1-carboxamide] | 1 to 10 |
| O=C(NCc1cccc(F)c1)N1CCN(c2ncnc3[nH]ccc23)CC1 [P-0163, N-[(3-fluorophenyl)methyl]-4-(7H-pyrrolo[2,3-d]pyrimidin-4-yl)piperazine-1-carboxamide] | 10 to 200 |
| Cc1ccc(NC(=O)N2CCN(c3ncnc4[nH]c(-c5ccncc5)cc34)C[C@H]2C)cn1 [P-0055, (2R)-2-methyl-N-(6-methyl-3-pyridyl)-4-[6-(4-pyridyl)-7H-pyrrolo[2,3-d]pyrimidin-4-yl]piperazine-1-carboxamide] | 0.0001 to 1 |
| C[C@@H]1CN(c2ncnc3[nH]c(-c4ccc(F)cc4)cc23)CCN1C(=O)N[C@H](C)c1ccc(F)cc1 [P-0034, (2R)-N-[(1R)-1-(4-fluorophenyl)ethyl]-4-[6-(4-fluorophenyl)-7H-pyrrolo[2,3-d]pyrimidin-4-yl]-2-methyl-piperazine-1-carboxamide] | 1 to 10 |
| Cn1cc(-c2cc3c(N4CCC(NS(=O)(=O)c5ccc(F)cc5)CC4)ncnc3[nH]2)cn1 [P-0490, 4-fluoro-N-[1-[6-(1-methylpyrazol-4-yl)-7H-pyrrolo[2,3-d]pyrimidin-4-yl]-4-piperidyl]benzenesulfonamide] | 1 to 10 |
| C[C@H](NC(=O)N1CCN(c2ncnc3[nH]c(-c4ccc(F)cc4)cc23)CC1)c1ccc(F)cc1 [P-0126, N-[(1S)-1-(4-fluorophenyl)ethyl]-4-[6-(4-fluorophenyl)-7H-pyrrolo[2,3-d]pyrimidin-4-yl]piperazine-1-carboxamide] | 0.0001 to 1 |
| COc1cc(-c2cc3c(N4CCC(NS(=O)(=O)c5ccc(C)cc5)CC4)ncnc3[nH]2)ccn1 [P-0660, N-[1-[6-(2-methoxy-4-pyridyl)-7H-pyrrolo[2,3-d]pyrimidin-4-yl]-4-piperidyl]-4-methyl-benzenesulfonamide] | 0.0001 to 1 |
| CCNc1ccc(-c2ncnc3[nH]c(-c4ccc(F)cc4)cc23)cn1 [P-0417, N-ethyl-5-[6-(4-fluorophenyl)-7H-pyrrolo[2,3-d]pyrimidin-4-yl]pyridin-2-amine] | 1 to 10 |
| CN(C)S(=O)(=O)NC1CCN(c2ncnc3[nH]c(-c4cnn(C)c4)cc23)CC1 [P-0469, 4-[4-(dimethylsulfamoylamino)-1-piperidyl]-6-(1-methylpyrazol-4-yl)-7H-pyrrolo[2,3-d]pyrimidine] | 0.0001 to 1 |
| C[C@H](NC(=O)N1CCN(c2ncnc3[nH]c(-c4ccc(C#N)cc4)cc23)CC1(C)C)c1ccc(Cl)cc1 [P-0686, N-[(1S)-1-(4-chlorophenyl)ethyl]-4-[6-(4-cyanophenyl)-7H-pyrrolo[2,3-d]pyrimidin-4-yl]-2,2-dimethyl-piperazine-1-carboxamide] | 10 to 200 |
| O=C(NCc1ccc(Cl)cc1)N1CCN(c2ncnc3[nH]c(C4CC4)cc23)CC1 [P-0138, N-[(4-chlorophenyl)methyl]-4-(6-cyclopropyl-7H-pyrrolo[2,3-d]pyrimidin-4-yl)piperazine-1-carboxamide] | 0.0001 to 1 |
| Cc1cc2c(-c3ccc(NS(=O)(=O)c4ccc(C(F)(F)F)cn4)cc3)ncnc2[nH]1 [P-0312, N-[4-(6-methyl-7H-pyrrolo[2,3-d]pyrimidin-4-yl)phenyl]-5-(trifluoromethyl)pyridine-2-sulfonamide] | 1 to 10 |
| O=C(NCc1ccccc1)N1CCN(c2ncnc3cc(Br)sc23)CC1 [P-0629, N-benzyl-4-(6-bromothieno[3,2-d]pyrimidin-4-yl)piperazine-1-carboxamide] | 10 to 200 |
| Cc1ccc(S(=O)(=O)NC2CCN(c3ncnc4[nH]c(-c5cn(C)nc5C)cc34)CC2)cc1 [P-0659, N-[1-[6-(1,3-dimethylpyrazol-4-yl)-7H-pyrrolo[2,3-d]pyrimidin-4-yl]-4-piperidyl]-4-methyl-benzenesulfonamide] | 0.0001 to 1 |
| O=S(=O)(NN1CCN(c2ncnc3[nH]c(-c4ccc(F)cc4)cc23)CC1)c1ccc(OC(F)(F)F)cc1 [P-0026, N-[4-[6-(4-fluorophenyl)-7H-pyrrolo[2,3-d]pyrimidin-4-yl]piperazin-1-yl]-4-(trifluoromethoxy)benzenesulfonamide] | 10 to 200 |
| O=C(NCc1ccc(F)cn1)N1CCN(c2ncnc3[nH]c(-c4cccnc4)cc23)CC1 [P-0124, N-[(5-fluoro-2-pyridyl)methyl]-4-[6-(3-pyridyl)-7H-pyrrolo[2,3-d]pyrimidin-4-yl]piperazine-1-carboxamide] | 1 to 10 |
| COc1cccc(CNC(=O)N2CC3CCC2CN3c2ncnc3cc(-c4ccc(F)cc4)sc23)c1 (stereo not shown) [P-0547, 5-[6-(4-fluorophenyl)thieno[3,2-d]pyrimidin-4-yl]-N-[(3-methoxyphenyl)methyl]-2,5-diazabicyclo[2.2.2]octane-2-carboxamide] | 0.0001 to 1 |
| O=C(Nc1ccc(F)cc1)N1CC2CCC1CN2c1ncnc2cc(-c3ccc(F)cc3)sc12 (stereo not shown) [P-0546, N-(4-fluorophenyl)-5-[6-(4-fluorophenyl)thieno[3,2-d]pyrimidin-4-yl]-2,5-diazabicyclo[2.2.2]octane-2-carboxamide] | 1 to 10 |
| C[C@H](NC(=O)N1CCN(c2ncnc3ccsc23)CC1(C)C)c1cccc(Cl)c1 [P-0677, N-[(1S)-1-(3-chlorophenyl)ethyl]-2,2-dimethyl-4-thieno[3,2-d]pyrimidin-4-yl-piperazine-1-carboxamide] | 1 to 10 |
| COc1cc(-c2cc3c(N4CCN(C(=O)N[C@@H](C)c5cccc(Cl)c5)[C@H](C)C4)ncnc3[nH]2)ccn1 [P-0711, (2R)-N-[(1S)-1-(3-chlorophenyl)ethyl]-4-[6-(2-methoxy-4-pyridyl)-7H-pyrrolo[2,3-d]pyrimidin-4-yl]-2-methyl-piperazine-1-carboxamide] | 0.0001 to 1 |

Source: patent US10227357B2, “Compounds and methods for kinase modulation, and indications therefor” (Plexxikon Inc., priority 2012, dated 2019)
